Patent US5049372A, “Anticancer activities in a host by increasing blood and plasma adenosine 5'-triphosphate (ATP) levels” (priority 1988, dated 1991)

What was measured:
CAPAN-1 xenografts = test: Arrest of growth of CAPAN-1 xenografts in athymic nu/nu mice (Table 2); type: in vivo, human; details: 1 ml of 50 mM i.p.
Protocol: (§1) The tumor cell lines employed were CT26, a mouse undifferentiated, aggressive colon carcinoma, and CAPAN-1, a well-differentiated human pancreatic adenocarcinoma. […] The cells are shown to be free of Mycoplasma contamination. Cells are cultured at 37° C. in a humidified atmosphere of 5% CO2 /95% air in MEM supplemented with antibiotics (100 units of penicillin per ml and 100 μg streptomycin per ml), L-glutamine (2 mM), non-essential amino acids (0.1 mM), sodium pyruvate (1 mM), and 10% fetal bovine serum.
(§2) In the tests, females and males CB6F1 mice (a standard F1 hybrid of BALB/C and C57BL/6) obtained from Jackson Laboratories, Bar Harbor, Maine and athymic outbred NCr nu/nu mice (males and females) from the Department of Radiation Medicine, Massachusetts General Hospital, Boston, Mass. 02114 are used. All the mice are kept for at least two weeks before inoculation of the tumors and the start of treatment and are 7-9 weeks old (CB6F1) or 6-7 weeks old (athymic nu/nu) at the start of the procedure. Animals weigh 20-25 g (females) or 23-28 g (males), are housed 5-12 per cage, and have ad libitum access to food and water.
(§3) Tumor cells are removed from subconfluent cultures by a mild trypsin-EDTA treatment, the cell pellet is washed once with MEM without serum and the cells are suspended at the desired cell numbers in PBS (phosphate-bufferedsaline, 8 g NaCl, 0.2 g KCl, 1.15 g Na2 HPO4.7H2 O, and 0.2 g KH2 PO4 per liter). Cell suspensions are shown to be at least 90% viable by trypan blue exclusion. Mice are injected subcutaneously in the right hind footpad with tumor cells suspended in 50 μl of PBS. The regular protocol (unless otherwise stated) consists of daily i.p. injections of 1 ml of 0.85% NaCl solution or 1 ml of 50 mM of AMP, ADP, or ATP in 0.85% NaCl (from stock solutions adjusted to pH 6.2) starting one day after tumor inoculation and given for ten consecutive days.
(§4) Injections are administered with 30 gauge needles and the mice are lightly anesthetized with ether. The mice are weighed before the start of treatment and once a week during and after treatment. After the tumors become palpable, tumor sizes are determined every three days. The animals are sacrificed, tumors are excised and weighed before they reach 10% of the animals' weight.
The effects of AMP, ADP, and ATP on human tumor xenografts in nude mice were evaluated utilizing the pancreatic ductal adenocarcinoma CAPAN-1 (see Kyriazis AP, Kyriazis AA, Scarpelli DG, Fogh J, Rao SM, Lepera R., "Human Pancreatic Adenocarcinoma Line CAPAN-1 in Tissue Culture and the Nude Mouse", Am. J. Pathol., 1982, 106, 250-260).
Treatment schedules consist of single daily i.p. injections for 10 consecutive days, starting one day after tumor inoculation. Tumor burden is relatively low (0.5-1×10^5 cells implanted) and tumor growth is slow (tumors became palpable 4-6 weeks after inoculation).

CT26 tumors [1] = test: Growth inhibition of s.c. footpad CT26 tumors in CB6F1 mice by daily i.p. adenine nucleotides (Table 1); type: in vivo, mouse; details: for Effectiveness of concentrations lower than 50 mM against CT26 footpad tumors: daily i.p. in volumes of 1.4-1.8 ml of saline, CB6F1 mice; for Effect of delaying start of treatment on tumor growth inhibition: start delayed until tumors palpable (6-10 days after inoculation); for Inhibition of tumor growth (% of saline-treated): 1 ml of 25 mM, based on tumor weights
Protocol: as §1, §2, §3, §4
The growth inhibitory properties of adenine nucleotides against CT26 murine colon carcinoma, which are inoculated s.c. in the hind footpad of CB6F1 mice, are illustrated in Table 1 hereinbelow. […] No significant differences between males and females are observed either in the rate of tumor growth or in the tumor's response to adenine nucleotides treatment.

CT26 tumors [2] = test: Arrest of growth of CT26 tumors in CB6F1 mice (Table 2); type: in vivo, mouse; details: experiment 1; CB6F1, 10 F; 0.5 × 10^4 cells; 5 weeks; 1 ml of 50 mM i.p.
Protocol: as §1
as §2, with “water. […]” for “water.”
Injections are administered with 30 gauge needles and the mice are lightly anesthetized with ether. […] After the tumors become palpable, tumor sizes are determined every three days. […]

[3] = Inhibition of host weight loss (cancer cachexia) in CT26 tumor-bearing mice; type: in vivo, mouse; details: FIG. 3; treatment initiated day 1 (A), day 5 (B) or day 9 (C)
Protocol: A further series of tests are conducted whereby tumors are inoculated by injections of 2.5×10^5 CT26 cells (over 90% viability) in 50 μl of phosphate-buffered saline into the right hind footpad of CB6F1 mice. The treatments were initiated at a variety of times after inoculation of the tumors. The injection schedules started either 1 or 5 days after tumor inoculation when none of the tumors are palpable or when the tumors are clearly palpable (average calculated weight of 100 mg), which occur in 100% of the inoculated mice after 8-11 days. Mice are randomized, divided into groups, and injected daily with 2.2 ml of saline, adenosine, AMP, or ATP (compounds are in sterile saline solutions at concentrations of 25 mM with AMP and ATP solutions adjusted to pH 6.2). Injections are administered intraperitoneally with 30 gauge needles and the mice are lightly anesthetized with […]. The mice are weighed and tumor sizes measured before the start of the treatment schedule and every three days during and after the treatment schedule. These determinations are performed before injections during the treatment period.
In particular, see FIG. 2. FIG. 2 illustrates inhibition of tumor growth (---) and host weight loss (-) in tumor-bearing mice by treatment with adenine nucleotides. Mice (CB6F1, 8 week old males) bearing palpable CT26 footpad tumors (on day 9 after tumor inoculation) are treated with saline (.smallcircle.), adenosine (o), AMP (Δ), or ATP (.quadrature.) as described herein. An untreated group is also included (x). Arrows indicate days of injection.
FIG. 3 further illustrates inhibition of host weight loss in tumor-bearing animals by treatment with adenine nucleotides. Mice (CB6F1, males, 7 weeks old, in A, 10 weeks old in B, C) are inoculated with CT26 tumors and daily treatments (for 10 consecutive days) with saline (.smallcircle.), adenosine (o), AMP (Δ), or ATP (.quadrature.) are initiated 1 day (A), 5 days (B), or 9 days after tumor inoculation (when all the tumors were palpable) (C). Arrows indicate days of injection. Experimental procedures were outlined in the text.

[4] = experiment 4, 11 F, 0.5 × 10^5 cells, 10 weeks
[5] = experiment 5, 10 F, 0.5 × 10^5 cells, 9 weeks
[6] = experiment 3, 12 M per group, 0.5 × 10^6 cells, day 13, 1 ml of 50 mM i.p. daily
[7] = experiment 4, 11 F per group, 0.5 × 10^6 cells, day 14, 1 ml of 50 mM i.p. daily
[8] = experiment 5, 12 F per group, 0.5 × 10^5 cells, day 16, 1 ml of 50 mM i.p. daily
[9] = experiment 6, 10 F per group, 0.5 × 10^5 cells, day 18, 1 ml of 50 mM i.p. daily (Ap4A 10 mM)
[10] = experiment 7, 10 F per group, 0.1 × 10^5 cells, day 22, 1 ml of 50 mM i.p. daily
[11] = experiment 7, 10 F per group, 0.1 × 10^5 cells, day 22, 1 ml of 50 mM i.p. daily, included one complete cure
[12] = experiment 1, 10 F per group, 0.5 × 10^6 cells, day 15, 1 ml of 25 mM i.p. daily
[13] = experiment 2, 10 M per group, 0.5 × 10^6 cells, day 15, 1 ml of 25 mM i.p. daily

| SMILES | Arrested tumors/implanted tumors (CAPAN-1 xenografts; [4]) | Arrested tumors/implanted tumors (CAPAN-1 xenografts; [5]) | Effectiveness of concentrations lower than 50 mM against CT26 footpad tumors (CT26 tumors [1]) | Tumor diameter (CT26 tumors [1]; [6]) [cm] | Tumor weight (CT26 tumors [1]; [6]) [g] | Tumor diameter (CT26 tumors [1]; [7]) [cm] | Tumor weight (CT26 tumors [1]; [7]) [g] | Tumor diameter (CT26 tumors [1]; [8]) [cm] | Tumor weight (CT26 tumors [1]; [8]) [g] | Tumor diameter (CT26 tumors [1]; [9]) [cm] | Tumor weight (CT26 tumors [1]; [9]) [g] | Tumor diameter (CT26 tumors [1]; [10]) [cm] | Tumor weight (CT26 tumors [1]; [11]) [g] | Most effective pH of the i.p. solution for inhibition of tumor growth (CT26 tumors [1]) | Effect of delaying start of treatment on tumor growth inhibition (CT26 tumors [1]) | Arrested tumors/implanted tumors (CT26 tumors [2]) | Deaths before stated day after tumor inoculation [3] | other results |
| --- | --- | --- | --- | --- | --- | --- | --- | --- | --- | --- | --- | --- | --- | --- | --- | --- | --- | --- |
| Nc1ncnc2c1ncn2[C@@H]1O[C@H](COP(=O)(O)O)[C@@H](O)[C@H]1O [AMP, adenosine 5'-monophosphate] | 7/11 | 6/10 | as effective | 1.2 ± 0.2 | 0.65 ± 0.21 | 1.0 ± 0.3 | 0.88 ± 0.31 | 0.6 ± 0.2 | 0.41 ± 0.18 | 0.8 ± 0.2 | 0.56 ± 0.21 | 0.9 ± 0.5 | 0.51 ± 0.28 | 5.5-6.2 | without any significant effects on the magnitude of tumor growth inhibition | 2/10 | No deaths occurred before day 19 (A) or day 25 (B,C) |  |
| Nc1ncnc2c1ncn2[C@@H]1O[C@H](COP(=O)(O)OP(=O)(O)OP(=O)(O)O)[C@@H](O)[C@H]1O [ATP, adenosine 5'-triphosphate] | 8/11 | 8/10 | as effective | 1.2 ± 0.2 | 0.70 ± 0.18 | 1.0 ± 0.2 | 0.84 ± 0.23 | 0.5 ± 0.1 | 0.38 ± 0.10 | 0.8 ± 0.1 | 0.51 ± 0.18 | 0.9 ± 0.5 | 0.68 ± 0.36 | 5.5-6.2 | without any significant effects on the magnitude of tumor growth inhibition | 4/10 | No deaths occurred before day 19 (A) or day 25 (B,C) | Arrested tumors/implanted tumors (CAPAN-1 xenografts; experiment 2, 5 F, 1 × 10^5 cells, 7 weeks): 4/5; Arrested tumors/implanted tumors (CAPAN-1 xenografts; experiment 3, 5 F, 1 × 10^5 cells, 6 weeks): 3/5; Tumor diameter (CT26 tumors [1]; [12]): 1.3 ± 0.2 cm; Tumor weight (CT26 tumors [1]; [12]): 1.34 ± 0.33 g; Inhibition of tumor growth (% of saline-treated) (CT26 tumors [1]; experiment 1, 10 F per group, 0.5 × 10^6 cells, day 15): 31%; Tumor diameter (CT26 tumors [1]; [13]): 1.4 ± 0.2 cm; Tumor weight (CT26 tumors [1]; [13]): 1.30 ± 0.29 g; Inhibition of tumor growth (% of saline-treated) (CT26 tumors [1]; experiment 2, 10 M per group, 0.5 × 10^6 cells, day 15): 30% |
